Type in all cases: cell-based, Human
The subject of experiment [1] is NSCLC cell lines (A549, H1437, H2087, H522, and HCC827). The experiment is described as follows: GC-MS and nanoESI-MS metabolite and lipid profiling of NSCLC cells. Here is the method:
The cells were seeded at a density of 2×10^5 cells/mL in a 6-well plate and treated with oTR (10 μM) for 48 hours. The cells were pooled from 3 wells in the 6-well plate and centrifuged at 1,000×g at 4° C. for 2 minutes. The cells were frozen in liquid nitrogen and stored at −70° C. until analysis. The cells were lysed by two freeze-thaw cycles using liquid nitrogen and 37° C. water bath. Protein concentrations were determined using the Bio-Rad protein assay kit (Thermo Scientific, Rockford, Ill.). Bovine serum albumin (BSA) was used as a standard for normalization. The cells were freeze-dried and stored at −70° C. until additional analysis.
To perform metabolite and lipid analyses of the extracted samples of NSCLC cells and xenograft tumor tissues, GC-MS and nanoESI-MS analyses were conducted according to a previously described method. For quality control (QC), the equal volume of mixture was taken from each sample to be analyzed.
Raw data files of the lipid analysis (*.raw) were converted into *.mzXML format using the Proteo Wizard MSConvert software. The metabolite and lipid mass spectra were converted using the Expressionist® MSX software (version 2013.0.39, Genedata, Basel, Switzerland) for data processing. The data obtained from NSCLC cells were divided by the peak intensity of the internal standard and total protein content for normalization. The data obtained from the NSCLC xenograft model were divided by the peak intensity of the internal standard for normalization. The data obtained thereby were used for fold-change analysis using the MetaboAnalyst (version 5.0; http://www.metaboanalyst.ca). SPSS software (version 26, IBM, Somers, N.Y.) was used for significance examination for the results, and identification was conducted by Student's t-test and Mann-Whitney test. All data were mean-centered and pretreated to Pareto scaling for principal component analysis (PCA) and orthogonal partial least-squares discriminant analysis (OPLS-DA), performed using the SIMCA-P software (version 15.0.2, Sartorius Stedim Data Analytics AB, Umea, Sweden). Cross validations and permutation tests (100 times) were performed to evaluate the goodness of fit value and predictability of the OPLS-DA model. Volcano plots were generated using the GraphPad Prism 9.0.
oTR-induced alterations of metabolic and lipidomic profiles were analyzed using 5 NSCLC cell lines (A549, H1437, H2087, H522, and HCC827) and xenograft tumor tissues by performing GC-MS and nanoESI-MS analyses. The relative changes in identified metabolites and intact lipid species are shown as fold-changes. […]

The next experiment deals with H522. The experiment can be described thus: MTT cell viability assay, H522. The note with it: 48 hours. The method, then: Human NSCLC cell lines A549, H1437, H2087, H522, and HCC827 were obtained from the Korean Cell Line Bank (KCLB, Seoul, Korea). These cells were cultured in RPMI-1640 medium (Gibco, N.Y., USA) supplemented with 10% FBS (Gibco) and 1% penicillin-streptomycin (HyClone Laboratories, Logan, Utah, USA). All cell lines were cultured under standard conditions (5% CO2, humid environment, 37° C.). A549 cells were seeded at a density of 1×10^4 cells/well and H1437, H2087, H522, HCC827, and MRCS cells at a density of 2×10^4 cells/well in 96-well plates and were cultured until cells reach approximately 70-80% confluency. The NSCLC cells were treated with plant hormones for 48 hours. Stock solution of each plant hormone was diluted with culture medium, wherein concentrations of DMSO, water, methanol, and ethanol in the culture medium were below 1% (v/v). The half-maximal inhibitory concentration (IC50) was calculated using CompuSyn software (ComboSyn Inc., Paramus, N.J., USA).
The inhibitory effect of plant hormones and their derivatives was investigated on 5 NSCLC cell lines (A549, H1437, H2087, H522, and HCC827). The NSCLC cells were treated with ABA, Cor, ethephon, GR-24, IAA, KR, MJ, N6b, N6i, oTR, and SS-HCS at concentrations of 0.1, 0.5, 1, 5, 10, 50, and 100 μM. Cell viability and IC50 values for 48 hours were investigated by performing the MTT assay.
On the technique in general: Tetrazolium assays rely on reduction of a dye to a coloured formazan, in cell work by metabolically active cells.

Experiment [2] deals with A549 cells. The experiment is described as follows: Mitochondrial function analysis (Seahorse XFe24, OCR). Here is the method: Mitochondrial and glycolytic functions were assessed using Seahorse XFe24 analyzer (Agilent Technologies, Lexington, Mass., USA). A549 cells were seeded in a cell culture plate at a density of 1.5×10^4 cells/well. Cells were treated with oTR (5, 10, and 50 μM) for 48 hours after achieving approximately 70-80% confluency. The glycolytic and mitochondrial functions were determined by measuring the proton efflux rate (PER) and oxygen consumption rate (OCR), respectively. Glycolytic PER (glycoPER) was obtained by subtracting mitochondria-derived protons from the total PER. The analyses were conducted according to the manufacturer's instructions.
To measure ATP production, oligomycin, an ATPase inhibitor, was added to the cells to inhibit mitochondria-derived ATP synthesis. Then, when carbonyl cyanide-4-(trifluoromethoxy)phenylhydrazone (FCCP), a mitochondrial oxidative phosphorylation uncoupler, was added to the cells, the OCR reached the maximal level, indicating maximal mitochondrial respiration. Spare respiratory capacity (SRC) indicates the amount of extra ATP produced by oxidative phosphorylation when energy demand of the cells increases suddenly. […] To determine the mitochondrial fuel source (glucose, glutamine, and fatty acid) that was better utilized in NSCLC cells, investigation was performed on the OCR of each fuel source in the absence and presence of each inhibitor. UK5099 (for glucose), BPTES (for glutamine), and etomoxir (for fatty acid).

The subject of experiment [3] is A549 cells. The experiment can be described thus: Measurement of H2O2 content. Particulars: oTR 5, 10, and 50 μM, 48 hours, dose-dependent. The method, then:
A549 cells were seeded at a density of 2×10^5 cells/mL in a 6-well plate and treated with oTR (5, 10, and 50 μM) or an equal volume of DMSO (control) for 48 hours. H2O2 content was measured according to a previously described method with some modifications added. Briefly, the cell pellets were extracted with 1 mL of 0.1% TCAA, and the extracts were homogenized and centrifuged at 15,000×g at 4° C. for 10 minutes. Potassium phosphate buffer (10 mM; 0.5 mL) and 1 M KI (1 mL) were added to 0.5 mL of the supernatant. The mixture was then incubated for 15 minutes at room temperature in the dark and measured at 390 nm. For normalization, protein concentration was determined using Bio-Rad protein assay kit with BSA as a standard.

The structures appear in SMILES notation.

For orientation: IC50 means the concentration that gives 50% inhibition. The low end stands for greater potency, the high end for weaker potency. `OC[C@H]1O[C@@H](n2cnc3c(NCc4ccccc4O)ncnc32)[C@H](O)[C@@H]1O` [oTR, ortho topolin riboside]: in experiment [1] (all NSCLC cell lines, oTR 10 μM, 48 hours), the lactate level entry is recorded as “significantly decreased”. The “levels of myo-inositol, amino acids, organic acids (malate and lactate), pyrimidines (uracil and uridine), creatinine, hypoxanthine, putrescine” value in experiment [1] (oTR 10 μM, 48 hours, vs untreated NSCLC cells) is “decreased”. Besides, in experiment [1] (oTR-treated NSCLC cells), the “PC, PE, and PS species and Cer 18:1/22:0 levels” value is “increased”; the “levels of PG and PI species” value is listed as “decreased”. Moreover, the IC50 in the experiment with H522 came to 26.1 ± 2.47 µM. In the experiment on A549 cells [2] (oTR 10 μM, FIG. 5C), the “glucose oxidation (mitochondrial fuel capacity)” value is listed as “did not differ”; the “glutamine and fatty acid oxidations (mitochondrial fuel capacity)” value is given as “significantly reduced”. Further, the “OCR (oxygen consumption rate)” value with A549 cells [2] (oTR 5, 10, and 50 μM, 48 hours, FIG. 5B) was “reduced”. The “basal OCR, ATP production, and SRC” value in the experiment with A549 cells [2] (oTR-treated vs untreated A549 cells) is recorded as “Significant reduction”. Moreover, in the experiment on A549 cells [3], the H2O2 content entry is reported as “significantly increased”.

These data come from patent publication US20230241088A1, “COMPOSITION FOR PREVENTING OR TREATING LUNG CANCER COMPRISING ORTHO-TOPOLIN RIBOSIDE AS ACTIVE INGREDIENT” (CHUNG-ANG UNIVERSITY INDUSTRY-ACADEMY COOPERATION FOUNDATION, priority 2022, published 2023).
